From US20250214951A1, “3-PHENYLISOXAZOLE DERIVATIVE, AND PHARMACEUTICAL COMPOSITION FOR PREVENTING OR TREATING EYE DISEASE, CONTAINING SAME AS ACTIVE INGREDIENT” (VASTHERA CO., LTD., priority 2022, published 2025) come the findings set out here.

Each structure is given as a SMILES string.

The test system of assay [1] is A2E accumulated in ARPE-19 cells. Briefly: Removal of intracellular A2E measured by HPLC/LC-MS. Format: cell-based, human. Particulars: ARPE-19 loaded with 50 μM A2E 48 h; 10, 25, 50 μM, 24 h; FIG. 2. From the text: In Table 1 and FIG. 1, in order to measure the reduction of intracellular A2E by compounds, A2E-fluorescent substance (A2E-BDP) that is easy to observe fluorescence was used. In previous research reports, A2E-BDP is known to have the same intracellular dynamics and characteristics as A2E, but since A2E is a substance that actually exists in a living body, the quantitative change in intracellular A2E was directly measured using the HPLC method as follows.
ARPE-19 cell lines were dispensed into 6-well plates at a concentration of 4×10^3 cells/well and cultured for 24 hours. ARPE-19 cell lines were treated with A2E at a concentration of 50 μM for 48 hours to accumulate A2E intracellularly. To evaluate the A2E removal ability, ARPE-19 cells containing A2E were treated with compound 17 of the present invention (10, 25, 50 μM) for 24 hours. Thereafter, ARPE-19 cells were washed with phosphate-buffered saline (PBS), and cell lysis buffer containing a protease inhibitor was added to prepare a cell lysate. Chloroform and methanol (2:1, vol/vol) were added to the sample obtained above, shaken to extract A2E, and then centrifuged at 10,000 g for 10 minutes. […] LC-MS (Shimadzu LC-MS 2010EV) analysis was performed using a C18 column ([…]) with acetonitrile and 0.1% formic acid (gradient, 0-100%, 0-10 min; flow rate 1.0 ml/min; monitored at 503 nm). […]

In the next assay the test system is LC3-II (autophagy flux). Briefly: Autophagy flux in ARPE-19 with or without bafilomycin A1. The assay is classed as cell-based, human. Particulars: 10, 25, 50 μM, 12 h, bafilomycin A1 2 nM 4 h, FIG. 7. How it is done:
Autophagy flux was measured by comparing the degree of change in LC3-II protein formation by treatment with example 17 compound of the present invention in the presence and absence of bafilomycin A1 (Abcam, Cambridge, United Kingdom) by Western blotting (Seranova E. et al. Autophagy: Methods and Protocols, Methods in Molecular Biology, vol. 1880, pp 389-428, 2019, https://doi.org/10.1007/978-1-4939-8873-0_26).
The autophagy flux measurement in this experiment used saturating concentrations of bafilomycin A1, known as an autophagy inhibitor. […] Therefore, the effect of the example compound of the present invention on autophagy flux can be determined by examining the level of LC3-II following treatment with the example compound of the present invention in the presence or absence of saturating concentrations of bafilomycin A1.
Specifically, in this experiment, ARPE-19 cell lines were seeded in 6-well plates at a concentration of 1×10^5 cells/well and cultured for 24 hours. […] The LC3-II level was measured by the Western immunoblotting method using a specific anti-LC3-II antibody (Cell Signaling Technology, MA, USA). Meanwhile, after treating with example 17 compound in the same manner as above under the condition of treating with bafilomycin A1 at a concentration of 2 nM for 4 hours, the amount of LC3-II was measured by the Western immunoblotting method. […]

With `C=CCOCc1cc(-c2cc(CC=C)ccc2OC)no1` [Example 17, 3-(5-allyl-2-methoxyphenyl)-5-((allyloxy)methyl)isoxazole], in assay [1], the “amount of accumulated A2E (HPLC)” value is recorded as “significantly reduced in a concentration-dependent manner”. Also, the “autophagy flux (difference in LC3-II with/without bafilomycin A1)” value in the assay on LC3-II (autophagy flux) is “significantly increases autophagy flux”.
